From US20100254928A1, “NOVEL COMPOSITION CONTAINING OZONIZED SURFACTANT” (priority 2007, published 2010) come the findings set out here.

Assay [1] has as its system Trichophyton mentagrophytes. Nature of the assay: Minimum inhibitory concentration test. Type of assay: cell-based. The settings on record: 96 h, 25° C., 1 × 10^5/mL. The text has this: (§1) In order to check the antimicrobial and antifungal performance of the ozonized surfactant, bacteriostatic and bactericidal effects of the ozonized surfactant against five kinds of microorganisms were examined. The five kinds of target microorganisms were Staphylococcus aureus as a prokaryotic gram-positive bacterium, Escherichia coli as a prokaryotic gram-negative bacterium, Saccharomyces cerevisiae and Trichophyton mentagrophytes as fungi which are eukaryotic microorganisms, and Cladosporium cladosporioides. One loopful of each strain was inoculated in a medium optimum for the strain, and cultured under culture conditions optimum for the strain to prepare a cell suspension for inoculation.
(§2) The solution A obtained in Example 4 was placed in test tubes, and was then diluted with sterilized water 2-, 4-, 8-, 16-, 32-, 64-, 128-, 256-, and 512-fold to prepare 10 levels of diluted ozonized surfactant solutions. Into L-shaped test tubes for a biophotorecorder, 9 mL of each medium shown in Table 1 was dispensed and sterilized by steam. Then, 1 mL of each of the 10 levels of diluted ozonized surfactant solutions was added aseptically to the L-shaped test tubes to prepare 10 mL of 10-, 20-, 40-, 80-, 160-, 320-, 640-, 1280-, 2560-, and 5120-fold diluted solutions of the solution A (hereinafter, referred to as a “graduated dilution series to be tested”). Into the graduated dilution series to be tested, 0.1 mL of the cell suspension for inoculation was inoculated (the initial number of cells of each microorganism is shown in Table 1). The L-shaped test tubes into which the cell suspension had been inoculated were set in a biophotorecorder (made by Advantec Toyo Kaisha, Ltd.) and subjected to shaking culture (30 rpm) under conditions shown in Table 1. The test tubes to be used were sterilized by dry heat (165° C. for 1 hour), and the media, sterilized water, and tools were sterilized by steam in an autoclave (121° C. for 15 minutes). In the following tests, they were sterilized in the same manner.
(§3) Another graduated dilution series was prepared between the temporary minimum inhibitory concentration and the concentration of the ozonized surfactant nearest to the temporary minimum inhibitory concentration, at which turbidity occurred. Then, the same operation as described above was again carried out. […] This MIC test against these five kinds of microorganisms was carried out also using, as a control, the surfactant solution before ozone treatment.

Assay [2] has as its system Staphylococcus aureus. Nature of the assay: Minimum inhibitory concentration test. In kind it is cell-based. The settings on record: 24 h, 37° C., 1 × 10^7/mL.
Excerpt: as §1, §2, §3

In assay [3] the test system is Cladosporium cladosporioides. Briefly: Minimum inhibitory concentration test. The settings on record: 96 h, 25° C., 1 × 10^5/mL. In kind it is cell-based.
Excerpt: as §1, §2, §3

Assay [4] deals with Saccharomyces cerevisiae. Briefly: Minimum inhibitory concentration test. The settings on record: 48 h, 28° C., 1 × 10^6/mL. Type of assay: cell-based.
Excerpt: as §1, §2, §3

Assay [5] relates to Escherichia coli. Briefly: Minimum inhibitory concentration test. In kind it is cell-based. The settings on record: 24 h, 30° C., 1 × 10^7/mL.
Excerpt: as §1, §2, §3

In assay [6] the test system is Trichophyton mentagrophytes. Nature of the assay: Minimum bactericidal concentration test. The settings on record: 96 h, 25° C. Type of assay: cell-based. As to the method:
(§4) Here, the ozonized surfactant was diluted 100-fold, and therefore the ozonized surfactant was considered to be ineffective. […] [table]

The test system of assay [7] is Staphylococcus aureus. Nature of the assay: Minimum bactericidal concentration test. In kind it is cell-based. The settings on record: 24 h, 37° C. As to the method: as §4
Assay [8] deals with Cladosporium cladosporioides. Nature of the assay: Minimum bactericidal concentration test. The settings on record: 96 h, 25° C. Type of assay: cell-based. As to the method:
as §4

Assay [9] deals with Saccharomyces cerevisiae. Briefly: Minimum bactericidal concentration test. In kind it is cell-based. The settings on record: 48 h, 28° C. As to the method:
as §4

Assay [10] deals with Escherichia coli. Briefly: Minimum bactericidal concentration test. Type of assay: cell-based. The settings on record: 24 h, 30° C. As to the method:
as §4

For assay [11], the system named is Staphylococcus aureus. Nature of the assay: Sterilizing activity value test. Type of assay: cell-based. The settings on record: 0.5% aqueous solution, contact time 5 min, 25 ± 1° C., vs 0.05 (w/v %) Polysorbate 80 control. As to the method:
(§5) In order to check the effect of the ozonized surfactant as a sterilizing detergent, a sterilizing activity test was performed. A 0.5% aqueous solution of the solution obtained in Example 4 was tested based on the sterilizing activity test of home care synthetic detergents and soaps, which is a method set by Detergent and Soap Fair Trade Council. […] Each of the control solution and the test sample solutions described in the table below is applied to a test specimen to which bacteria have been inoculated beforehand. After letting the specimens stand for a certain period of time, the viable bacteria count on each specimen is measured. The sterilizing activity value is obtained by subtracting the common logarithm value of the viable bacteria count on the specimen treated with a test sample from the common logarithm value of the viable bacteria count on the specimen treated with the control. […] In a predetermined period of time, an inactivator is applied to inactivate the property suppressing the growth of bacteria and the property killing bacteria, and subsequently the viable bacteria count on the specimen is determined. […]

Assay [12] deals with Escherichia coli. Briefly: Sterilizing activity value test. In kind it is cell-based. The settings on record: 0.5% aqueous solution, contact time 5 min, 25 ± 1° C., vs 0.05 (w/v %) Polysorbate 80 control. As to the method:
as §5

The subject of assay [13] is slug. Nature of the assay: Insecticidal activity: test of killing slugs. The settings on record: 1% aqueous solution, 2 pushes: 1.88 mL sprayed from 15 cm above. In kind it is in vivo. As to the method:
In order to check the insect control performance of the ozonized surfactant, a test of killing slugs was performed. A slug was put into a glass petri dish. Onto the slug, a 1% aqueous solution of the ozonized surfactant obtained in Example 4, 5, 7, 9 or 10 (2 pushes: 1.88 mL) was sprayed from 15 cm above. After that, the time elapsed until the slug died (the motion stopped) was measured. As a control, the same evaluation was simultaneously performed with a commercial insecticide (product name: NEW Namekuji (slug) Spray, made by Sumitomo Chemical Garden Products Inc., Lot No. 11.05 0806JE) containing a natural substituted phenol, a copper compound and an alcohol, as active ingredients.

For assay [14], the system named is mold (filamentous fungus). Nature of the assay: Evaluation of antiseptic activity in thickener solution. The settings on record: 0.1% in 3.5% Carbopol ETD2020 aqueous solution, 25° C. In kind it is cell-based. As to the method: In order to check the antiseptic performance of ozonized surfactants, the ozonized surfactants were added to a substance susceptible to mold. […] Into a 100 mL-glass bottle, 50 mL of the sample was charged. The bottles were kept at 25° C. in a thermostatic air chamber, and temporal changes were visually observed. […] The mold-like material was removed and examined under a 700-power microscope. As a result, spores were detected and the material was identified as a filamentous fungus. The above results confirmed the antiseptic activity of the ozonized surfactants.

Regarding “Ozonized POE (10 EO) oleyl ether [Example 4]”, the Minimum inhibitory concentration was 0.03% in [1]; 0.11% in assay [2]; 0.09% in assay [3]; 0.02% in assay [4]; 0.25% in [5]. The Minimum bactericidal concentration in assay [6] was 0.03%; in [7], 0.11%; in assay [8] it was 0.18%; in assay [9], 0.03%; in assay [10], 0.30%. Besides, the sterilizing activity value is 2.8 in assay [11] and 4.6 in assay [12]. The “Death time of slug” value in [13] was 564 s. For the same substance, the “Antiseptic activity of thickener soln. (visually observed), 1 month after” value in [14] is on record as “Good”. Also, the “Antiseptic activity of thickener soln. (visually observed), 1 week after” value in [14] was “Good”.
